Columns and labels:
[1] = test system: Lewis Lung Carcinoma cells; test: rechallenge of cured mice with Lewis Lung Carcinoma cells; assay type: in vivo
Protocol: The ability of irradiation followed by intravenous administration of the exemplary immunocytokine EMD521873 to generate a long lasting immune response was tested by rechallenging cured mice with tumor cells. Mice bearing Lewis Lung Carcinoma tumors were originally treated with either fractionated radiation (3.6 Gy/d, d0-4) plus cisplatin (4 mg/kg, d0), EMD521873 alone (5 mg/kg, d7, 8, 9), or the combination of EMD521873 plus chemoradiation.

[2] = test system: CD8 effector cells in the blood; test: FACS analysis of blood, LLC dual tumor model; assay type: in vivo, mice; details: Experiment LLC-6; combination compared to either chemoradiation or EMD521873 alone
Protocol: Immune effector cell populations in blood were analyzed by FACS. Blood was collected from the retro-orbital sinus of each mouse. Red blood cells were eliminated using lysis buffer. After blocking with rat IgG (1:50), samples were incubated with a 7-color cocktail of antibodies against CD4, CD8, CD25, CD44, CD62L, CD11b, and DX5. Samples were run on a FacsARIA and analyzed for various cell subpopulations.
In another experiment, LLC tumors were established subcutaneously in both the leg and flank of the same animal. Animals were then treated with either cisplatin (4 mg/kg, d0) plus fractionated radiation given to the leg tumor (3.6 Gy/d, d0-4), i.v. EMD521873 alone (5 mg/kg, d7, 8, 9), or the combination of EMD521873 plus chemoradiation (Experiment LLC-6). Tumor growth and immune response in both the irradiated leg tumor and the non-irradiated flank tumor were monitored. […] CD8 effector cells were increased by approximately 4-fold in the blood with the combination compared to either chemoradiation or EMD521873 alone.

[3] = test system: non-small cell lung cancer; test: dose-escalation trial in non-small cell lung cancer; assay type: in vivo; details: human NSCLC; local irradiation 5×4 Gy then EMD521873 at a dose level below the MTD
Protocol: An dose-escalation trial is performed using EMD521873 in combination with local irradiation (20 Gy) of primary tumors or metastases in subjects with non-small cell lung cancer stage IIIb with malignant pleural effusion or stage IV with disease control (partial response or stable disease) after application of 4 cycles of platinum-based, first-line chemotherapy.
Subjects receive local irradiation (5×4 Gy) given over 5 consecutive days, prior to the first treatment cycle with EMD521873. After a 2-day treatment-free interval, intravenous infusions of EMD521873 are given on 3 consecutive days in 3-week cycles.
In each cycle, patients receive EMD521873 given as a once-daily, 1-h intravenous infusion on 3 consecutive days (days 1-3) followed by an 18-day treatment-free break (days 4-21).
Dose escalation of EMD521873 is performed in cohorts of 3 subjects at dose levels of 0.15, 0.30, and 0.45 mg/kg. Escalation to the next dose level is based on the number of dose limiting toxicities (DLTs) observed, if any, during the DLT evaluation period (i.e. the 21 days following the day of first infusion of […] in the first cycle). DLTs are defined as any grade ≧3 toxicity assessed as related to trial treatment (EMD521873 and/or radiation). If no DLT occurs in the 3 subjects, the next 3 subjects are recruited at the next highest dose level. […]

Substance: dI-NHS76γ2(h)(FN>AQ)-ala-IL2(D20T) [EMD521873]
- mice with complete response that did not regrow tumor on rechallenge ([1]; EMD521873/Chemoradiation treatment, s.c. LLC rechallenge after complete remission >50 days): 12 out of 13
- Immunity to Rechallenge ([1]; Exp LLC-4, cured C57BL/6 mice rechallenged with LLC cells): 0/1
- mice with complete responses immune to rechallenge with LLC cells ([1]; LLC-8, LLC-9, combination with chemoradiation): Four out of 4
- CD8 effector cells increased in the blood [2]: approximately 4 fold
- rates of tumor response (CT or MRI scan) [3]: improved rates of tumor response

Reference: patent US20100330029A1, “Cancer Treatments with Radiation and Immunocytokines” (Merck Patent GmbH, priority 2008, published 2010)
